Data on one molecule can be found in patent US20260306500A1, “METHOD OF INHIBITING ADENOSINE TRIPHOSPHATE SECRETION, METHOD OF INHIBITING HEPATIC STELLATE CELL ACTIVATION, METHOD OF DEACTIVATING HEPATIC STELLATE CELL, METHOD OF TREATING HEPATIC FIBROSIS, METHOD OF TREATING NON-ALCOHOLIC STEATOHEPATITIS, AND METHOD OF TREATING PSORIASIS” (Kurume University, priority 2023, published 2026).

The structures appear in SMILES notation.

The subject of this assay is α-SMA in mouse liver. Kind of assay: α-SMA Western blotting of liver tissue of TAA-treated mice. The class given is in vivo. The conditions noted are these: imeglimin 200 mg/kg p.o. (FIG. 31). On the procedure: In accordance with Example 15, immunostaining of α-SMA in liver sections and observation by fluorescence microscopy were performed for the normal control group, the TAA group, and the TAA+IMG group, and for a TAA+Clo group, which was treated in the same manner as the TAA+IMG group except that clodronate, instead of imeglimin, was administered at 30 mg/kg by blending it in the drinking water from 1 week after the start of TAA administration.
Further, α-SMA was compared by Western blotting. Fresh mouse liver was homogenized in Western lysis buffer (20 mM Tris-HCl, pH 7.6, 150 mM NaCl, 2 mM EDTA, 0.5% NP-40) supplemented with protease and phosphatase inhibitor tablets (manufactured by Roche Applied Science), followed by centrifugation at 10,000×g at 4° C. for 5 minutes to obtain a supernatant. Protein content in the supernatant was quantified using a BCA Protein Assay Kit (manufactured by ThermoFisher Scientific). […] Thereafter, protein bands were visualized using an […] (ECL) Western blotting detection system (manufactured by GE Healthcare) and detected with an image analyzer LAS-4000 mini (manufactured by Fujifilm).

With `C[C@@H]1N=C(N)NC(N(C)C)=N1` [imeglimin], the “TAA-induced increase in α-SMA (Western blotting)” value was “markedly suppressed”.
